What was measured:
[1] = test system: Notch pathway in MCF7 cells; experiment: qRT-PCR of Notch pathway mRNAs (DLL1, Jag1, Notch1, Hey1); assay type: cell-based, human
Procedure: (D) MCF7 cells were transfected with scramble or anti-miR-34a LNA oligos. 24 h post-transfection, 20 μM Nutlin-3 was added to the half of the samples for additional 48 h. RNA extraction and analysis was as in (B).
(§1) RNA quantification was performed by real-time qRT-PCR in an ABI PRISM 7300 Sequence Detection System (Applied Biosystems) with SYBR Green Master Mix (Applied Biosystems). For mRNA quantification, cDNA produced with random hexamers and MMLV reverse transcriptase (Promega) from 10 ng of total RNA was subjected to RT-PCR using super SYBR-green ready mix (Applied Biosystems) and specific DNA primers (Table 1 for the EST, Table 2 for p21, Hdm2, GAPDH and HPRT). For small RNAs (U6, 5S, microRNAs), 50 ng total RNA was converted to cDNA using specific primers for reverse transcription (Ambion) and MMLV reverse transcriptase. Relative expression levels were determined by real-time qRT-PCR using super SYBR-green ready mix and specific primers (Ambion). Quantification was done using standard curves. All reactions were performed in duplicate.

[2] = test system: Notch pathway in A172 cells; experiment: as above; assay type: cell-based; conditions: 72 hours after transfection; for mRNA levels of DLL1, Jag1 or Notch1: normalized to GAPDH
Procedure: (B) A172 cells were transfected with either scrambled or anti-miR-34a LNA oligos. RNA was isolated 72 hours later, and subjected to qRT-PCR to determine relative levels of expression of DLL1, Jag1 and Notch1 (normalized to GAPDH).
(C) A172 cells were transfected with pcDNA3-pm34a-EST-MUT (MUT) or pcDNA3-pm34a-EST (EST). RNA extraction and analysis was as in (B).
as §1
A complementary, opposite effect on Hey1 expression was seen when miR-34a was over-expressed in A172 cells.

U2OS cells = experiment: Apoptosis by microscopy and FACS-based sub-G1 DNA content; assay type: cell-based, human
[3] = test system: EST-Prom-luc (miR-34a putative promoter); experiment: Dual luciferase assay with EST-Prom-luc in HCT116 cells; assay type: cell-based, human; conditions: HCT116 control (siLacZ) cells, 5-FU for 16 hours
[4] = test system: p53 binding to the pm34a-EST p53BS; experiment: Chromatin immunoprecipitation (ChIP); assay type: cell-based, human; conditions: HCT116 cells, 50 μg/ml 5-FU for 16 hours
Procedure: (A) HCT116 cells stably expressing shRNA specific for p53 (sip53) or for LacZ (siLacZ) were either left untreated or treated for 16 hours with 50 μg/ml 5-FU, and then subjected to ChIP analysis with antibodies directed against p53 or HA as a control. The precipitated DNA was subjected to quantitative real-time PCR analysis with primers spanning the 5′ p53BS of the p21 gene, the putative p53BS of the pm34a-EST, or the GAPDH gene as a negative control. (B) Schematic representation of the DNA fragment (thick bar) cloned into the luciferase reporter plasmid. The positions of the p53BS and exons 1 and 2 of the pm34a-EST are also indicated. (C) The putative promoter of the pm34a-EST was cloned upstream to the firefly luciferase reporter gene in the pGL3-basic vector to yield plasmid EST-Prom-luc. EST-Prom-luc was transfected into H1299 cells without or with the indicated amounts of p53 expression plasmid. Luciferase activity was then measured by the dual luciferase assay, and normalized for Renilla luciferase activity. […]
ChIP analysis was performed as described (Minsky, 2004), employing the CM1 p53-specific polyclonal antibody or anti-HA polyclonal antibody as a control. […] Quantification of precipitated DNA was preformed by real-time qPCR, using an ABI PRISM 7300 Sequence Detection System. […]

[5] = test system: pm34a-EST, miR-34a and p21 mRNA in H1299-TS cells; experiment: qRT-PCR of p53-dependent induction in the presence of cycloheximide; assay type: cell-based, human; conditions: H1299-TS cells shifted to 32° C., 80 nM CHX
Procedure: (A) H1299 and 111299-TS cells were either left untreated or supplemented with 80 nM cycloheximide (CHX) for 30 min before being shifted to either 37° C. or 32° C. Cells were then incubated for the indicated time periods with continuous exposure to the drug. RNA was isolated and subjected to qRT-PCR analysis with primers specific for pm34a-EST. Values were normalized for HPRT in the same samples. (B) H1299-TS cells were processed essentially as in (A), except that CHX was added only where indicated. RNA was subjected to qRT-PCR with primers specific for mature miR-34a. Values were normalized for U6 RNA in the same samples. (C) The same RNA samples as in (B) were subjected to qRT-PCR analysis with primers specific for p21 mRNA. […]
as §1, with “For small RNAs (U6, 5S, microRNAs), 50 ng total RNA was converted to cDNA using specific primers for reverse transcription (Ambion) and MMLV reverse transcriptase.” left out, “All reactions were performed in duplicate.” left out

[6] = test system: p53 mRNA and p21 mRNA in U2OS cells; experiment: qRT-PCR analysis of p53 mRNA and p21 mRNA after Nutlin-3; assay type: cell-based, human; conditions: 20 μM Nutlin-3 for 48 h, normalized to HPRT
Procedure: (A) HCT116 cells stably expressing shRNA against p53 (sip53) or LacZ (siLacZ) were either treated with 50 μg/ml 5-FU for 16 h or left untreated. […] total RNA from each sample was subjected to qRT-PCR analysis of p21 mRNA. Results were normalized to HPRT expression in the same samples. (B) U2OS cells stably expressing shRNA against p53 (sip53) or LacZ (siLacZ) were either treated with 20 μM Nutlin-3 for 48 h or left untreated. RNA from each sample was subjected to qRT-PCR analysis of p53 mRNA and p21 mRNA. […] The modest increase in p53 mRNA (1.8 fold) has not been further investigated. (C) Western blot analysis of 20 μg total protein extracted from parallel cultures treated as in (A). […]
as §1, with “For small RNAs (U6, 5S, microRNAs), 50 ng total RNA was converted to cDNA using specific primers for reverse transcription (Ambion) and MMLV reverse transcriptase.” left out, “All reactions were performed in duplicate.” left out

Bcl-2 mRNA = experiment: Real-time PCR analysis of Bcl-2 mRNA; assay type: cell-based, human; conditions: H1299 or U2OS cells, 100 nM pre-miR-34a RNA oligonucleotides, normalized to GAPDH mRNA
Procedure: (§2) (A) H1299 or U2OS cells were transiently transfected with 100 nM control scrambled RNA (cont) or pre-miR-34a RNA oligonucleotides (pre-34a, Ambion) using siPORT NeoFX transfection reagent (Ambion). Three days post-transfection, cell extracts were prepared. 30 μg of total protein was subjected to SDS-15% polyacrylamide gel electrophoresis followed by Western blot analysis with antibodies directed against GAPDH (MAB374, Chemicon) and Bcl-2 (C-2, Santa Cruz). (B) Total RNA was extracted from identical cultures as in (A) using the mirVana miRNA isolation kit (Ambion). RNA was converted to cDNA using random hexamers and MMLV reverse transcriptase (Promega). cDNA obtained from 10 ng total RNA was subjected to real-time PCR analysis using specific primers for Bcl-2 mRNA (forward primer—5′-[…]-3′ (SEQ ID NO: 42), reverse primer—5′-ATCAAACAGAGGCCGCATG-3′ (SEQ ID NO: 43) and super SYBR-green ready mix (Applied Biosystems) in an ABI PRISM 7300 Sequence Detection System (Applied Biosystems). Bcl-2 mRNA levels were normalized relative to GAPDH mRNA (forward primer—5′-[…]-3′ (SEQ ID NO: 44), reverse primer—5′-AAAAGCAGCCCTGGTGACC-3′) (SEQ ID NO: 45) in the same samples. RU=relative units. (C) 200 ng of total RNA obtained from (B) was subjected to quantitative real-time RT-PCR using primers for mature miR-34a. Values were normalized relative to U6 RNA levels in the same samples. […]

Bcl-2 = experiment: Western blot analysis of Bcl-2 protein; assay type: cell-based, human; conditions: H1299 or U2OS cells, 100 nM pre-miR-34a RNA oligonucleotides, three days post-transfection
Procedure: as §2

5′-aacaaccagctaagacactgcca-3′ (antisense AACAACCAGCTAAGACACTGCCA; LNA-modified, pattern not given here) [LNA anti-miR-34a]
expression of Hey1 following p53 activation ([1]; 20 μM Nutlin-3 for 48 h): stronger effect | expression of Hey1 ([1]; versus scrambled LNA): up-regulation | mRNA levels of DLL1, Jag1 or Notch1 ([1]; versus scrambled LNA): no effect | expression of Hey1 [2]: up-regulation | mRNA levels of DLL1, Jag1 or Notch1 [2]: no effect | protection from apoptosis in p53 knockdown cells (U2OS cells; U2OS cells stably expressing p53 shRNA (sip53)): not observed | spontaneous apoptosis (U2OS cells; U2OS cells, 100 nM LNA, versus scrambled oligonucleotide): decrease in spontaneous apoptosis | apoptosis due to Nutlin-3 treatment (U2OS cells; U2OS siLacZ cells, 100 nM LNA with 20 μM Nutlin-3 for 48 hours): partial protection

O=c1[nH]cc(F)c(=O)[nH]1 [5-FU, 5 fluorouracil]
luciferase activity [3]: nearly twofold increase | p53 binding to the pm34a-EST p53BS [4]: further augmented

C[C@@H]1C[C@@H]([C@H](O)CC2CC(=O)NC(=O)C2)C(=O)[C@@H](C)C1 [CHX, cycloheximide]
induction of pm34a-EST or mature miR-34a [5]: did not prevent the induction | p21 mRNA induction [5]: nor did it affect

COc1ccc(C2=N[C@@H](c3ccc(Cl)cc3)[C@@H](c3ccc(Cl)cc3)N2C(=O)N2CCNC(=O)C2)c(OC(C)C)c1 [Nutlin-3]
Jag1 and Notch1 mRNA levels ([1]; 20 μM Nutlin-3 for 48 h): induction | apoptosis (U2OS cells; U2OS cells, 20 μM Nutlin-3 for 48 hours): enhanced apoptosis | p21 mRNA increase [6]: 10.3 fold | p53 mRNA increase [6]: 1.8 fold

miR-34a: microRNA SEQ ID NO: 1; overexpressed via pcDNA3-pm34a-EST (A172) or pre-miR-34a RNA oligonucleotides, Ambion (Bcl-2 study) (UGGCAGUGUCUUAGCUGGUUGUU; listed as RNA, chemistry not fully specified; listed as Homo sapiens)
expression of Hey1 [2]: reduction in Hey1 mRNA | mRNA levels of DLL1, Jag1 or Notch1 [2]: absence of any change | Bcl-2 mRNA (Bcl-2 mRNA): without a measurable decrease | Bcl-2 protein (Bcl-2): decreased
